This experiment addresses Factor D (Homo sapiens, UniProt P00746). In words: Factor D esterolytic assay. In kind it is biochemical. As to conditions: substrate Z-Lys-SBzl 1.29 mM, 100 mM HEPES, 500 mM NaCl, pH 7.5, 10% DMSO, tested a minimum of three times. As to the method: The IC50 value of a compound (i.e., the concentration of the compound that inhibits 50% of the enzymatic activity) was calculated according to the procedure reported in U.S. Pat. No. 6,653,340 B1, e.g., column 74 (incorporated by reference).
Specifically, the compounds were dissolved in a stock solution of DMSO at 10.0 or 100 mM. A portion of this stock solution was added to assay buffer in a final volume of 50 μL. Controls included buffer alone and enzyme solutions to which DMSO was added. Substrate was added to the reaction wells immediately or after incubation at room temperature. The reaction rates were measured spectrophotometrically by the generation of product at 405 nm for 600 sec. Background absorbance at 690 nm was measured and subtracted from the absorbance at 405 nm for each well.
The reaction rate for enzyme alone was compared to the rate of enzyme in the presence of inhibitor and the percent inhibition was calculated as shown below: […]
An established esterolytic assay for the measurement of Factor D activity and inhibition of Factor D activity was used (Kam, C. M.; McRae, B. J.; Harper, J. W.; Niemann, M. A.; Volanakis, J. E.; Powers, J. C. Human complement proteins D, C2, and B Active site mapping with peptide thioester substrates. J Biol. Chem. 1987, 262, 3444-3451). For this assay Z-Lys-SBzl, 1.29 mM (Kim, S.; Narayana, S. V. L; Volanakis, J. E. Mutational analysis of the substrate binding site of human complement Factor D. Biochemistry. 1994, 33, 14393-14399.) was used as the substrate for Factor D ([…]). Hydrolysis of this compound by Factor D liberated a free sulfhydryl group which is then reacted with 5,5′-dithiobis(2nitrobenzoic acid) producing an intense yellow color (Habeeb, A. F. S. A. Reaction of protein sulfhydryl groups with Ellman's Reagent. Methods in Enzymol. 1976, 25, 457-464). The assays were performed in 96 well microtiter plates and rates of hydrolysis were monitored at 405 nm on a Biotek Synergy H1 plate reader. Hydrolysis rates were reported as change in mOD/min. The assay was conducted in 100 mM HEPES, 500 mM NaCl, pH 7.5 containing 10% DMSO in a final volume of 50 μL per well.
An IC50, a compound concentration which inhibits 50% of the enzymatic activity, was calculated. Compounds in the examples were tested a minimum of three times.
Sequence of Factor D (P00746 26-253): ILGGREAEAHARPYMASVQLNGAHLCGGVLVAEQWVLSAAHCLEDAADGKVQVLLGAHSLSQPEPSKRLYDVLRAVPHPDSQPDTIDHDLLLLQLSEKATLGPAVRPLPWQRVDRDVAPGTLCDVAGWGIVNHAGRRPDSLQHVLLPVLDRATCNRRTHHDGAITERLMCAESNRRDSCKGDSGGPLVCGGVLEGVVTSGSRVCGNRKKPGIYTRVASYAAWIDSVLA
In general, IC50 refers to the concentration that inhibits the measured activity by half. Consider `NC(CC(F)(F)F)c1cccc(-c2cc(COc3ccccc3CC(=O)O)cc3ccoc23)c1` (centres unmarked) [Compound 41e, 2-(2-((7-(3-(1-amino-3,3,3-trifluoropropyl)phenyl)benzofuran-5-yl)methoxy)phenyl)acetic acid], for which the IC50 fell in the range of 1000 to 10000 nM.

Regarding `NC(CF)c1cccc(-c2cc(COc3cc(F)ccc3CC(=O)O)cc3ccoc23)c1` (single isomer, unassigned; (+)) [Compound 15f, (+)-2-(2-((7-(3-(1-amino-2-fluoroethyl)phenyl)benzofuran-5-yl)methoxy)-4-fluorophenyl)acetic acid], the half-maximal inhibitory concentration (IC50) was below 1000 nM.

Consider `COc1ccc(CC(=O)O)c(OCc2cc(-c3ccnc(CN)c3)c3occc3c2F)c1` [Compound 43d, 2-(2-((7-(2-(aminomethyl)pyridin-4-yl)-4-fluorobenzofuran-5-yl)methoxy)-4-methoxyphenyl)acetic acid], for which the IC50 was below 1000 nM.

With `NCc1nccc(-c2cc(COc3ccccc3CC(=O)O)cc3c2OCC3)c1F` [Compound 40g, 2-(2-((7-(2-(aminomethyl)-3-fluoropyridin-4-yl)-2,3-dihydrobenzofuran-5-yl)methoxy)phenyl)acetic acid], the 50% inhibitory concentration (IC50) is below 1000 nM.

For the compound `NCc1cccc(-c2cc(COc3ccccc3CC(=O)O)c(OCC3CCCO3)c3ccoc23)c1` (centres unmarked) [Compound 69g, 2-(2-((7-(3-(aminomethyl)phenyl)-4-((tetrahydrofuran-2-yl)methoxy)benzofuran-5-yl)methoxy)phenyl)acetic acid], the IC50 was below 1000 nM.

Take `CCOP(=O)(NCc1ccc(CC(=O)O)c(OCc2cc(-c3cccc(CN)c3)c3occc3c2)c1)OCC` [Compound 32c, 2-(2-((7-(3-(aminomethyl)phenyl)benzofuran-5-yl)methoxy)-4-((diethoxyphosphorylamino)methyl)phenyl)acetic acid]: the IC50 was below 1000 nM.

As for `NCc1cccc(-c2cc(COc3ccccc3CC(=O)O)cc3c(F)coc23)c1F` [Compound 45b, 2-(2-((7-(3-(aminomethyl)-2-fluorophenyl)-3-fluorobenzofuran-5-yl)methoxy)phenyl)acetic acid], the IC50 is below 1000 nM.

Consider `CC(N)c1nc(-c2cc(COc3ccccc3CC(=O)O)cc3ccoc23)cs1` (centres unmarked) [Compound 7e, 2-(2-((7-(2-(1-aminoethyl)thiazol-4-yl)benzofuran-5-yl)methoxy)phenyl)acetic acid], for which the IC50 was in the range of 1000 to 10000 nM.

In the case of `CCNCc1cccc(-c2cc(COc3ccccc3CC(=O)O)cc3ccoc23)c1` [Compound 21c, 2-(2-((7-(3-((ethylamino)methyl)phenyl)benzofuran-5-yl)methoxy)phenyl)acetic acid], the IC50 is below 1000 nM.

For the compound `CCC(N)c1cc(-c2cc(COc3ccccc3CC(=O)O)cc3ccoc23)cs1` (centres unmarked) [Compound 1j, 2-(2-((7-(5-(1-aminopropyl)thiophen-3-yl)benzofuran-5-yl)methoxy)phenyl)acetic acid], the half-inhibitory concentration (IC50) was in the range of 1000 to 10000 nM.

`NCc1cccc(-c2cc(COc3cc(CN)ccc3CC(=O)O)cc3c(C(F)(F)F)coc23)c1` [Compound 31d, 2-(4-(aminomethyl)-2-((7-(3-(aminomethyl)phenyl)-3-(trifluoromethyl)benzofuran-5-yl)methoxy)phenyl)acetic acid]: the IC50 is below 1000 nM.

On to `NCc1cccc(-c2cc(COc3ccccc3CC(=O)O)c(C3CC3)c3ccoc23)c1` [Compound 68g, 2-(2-((7-(3-(aminomethyl)phenyl)-4-cyclopropylbenzofuran-5-yl)methoxy)phenyl)acetic acid], for which the IC50 was below 1000 nM.

For `CC(Oc1ccccc1CC(=O)O)c1cc(-c2cccc(CN)c2)c2occc2c1` (single isomer, unassigned; (+)) [Compound 77f, (+)-2-(2-(1-(7-(3-(aminomethyl)phenyl)benzofuran-5-yl)ethoxy)phenyl)acetic acid], the IC50 is below 1000 nM.

Regarding `CC(=O)c1ccc(CC(=O)O)c(OCc2cc(-c3ccnc(CN)c3F)c3oc(F)cc3c2)c1` [Compound 75d, 2-(4-acetyl-2-((7-(2-(aminomethyl)-3-fluoropyridin-4-yl)-2-fluorobenzofuran-5-yl)methoxy)phenyl)acetic acid], the half-inhibitory concentration (IC50) was below 1000 nM.

`NCc1cccc(-c2cc(COc3cc(C(F)(F)F)ccc3CC(=O)O)cc3cc(F)oc23)c1` [Compound 53d, 2-(2-((7-(3-(aminomethyl)phenyl)-2-fluorobenzofuran-5-yl)methoxy)-4-(trifluoromethyl)phenyl)acetic acid]: the IC50 was below 1000 nM.

`NCc1nccc(-c2cc(COc3ccc(F)cc3CC(=O)O)cc3c(C(F)(F)F)coc23)c1F` [Compound 11m, 2-(2-((7-(2-(aminomethyl)-3-fluoropyridin-4-yl)-3-(trifluoromethyl)benzofuran-5-yl)methoxy)-5-fluorophenyl)acetic acid]: the half-maximal inhibitory concentration (IC50) is below 1000 nM.

In the case of `NCc1cccc(-c2cc(C(Oc3ccccc3CC(=O)O)C(=O)O)cc3ccoc23)c1` (centres unmarked) [Compound 35e, 2-(7-(3-(aminomethyl)phenyl)benzofuran-5-yl)-2-(2-(carboxymethyl)phenoxy)acetic acid], the concentration for half-maximal inhibition (IC50) is below 1000 nM.

With `NCc1cccc(-c2cc(COc3cc(CNP(=O)(OCc4ccccc4)OCc4ccccc4)ccc3CC(=O)O)cc3ccoc23)c1` [Compound 34c, 2-(2-((7-(3-(aminomethyl)phenyl)benzofuran-5-yl)methoxy)-4-((bis(benzyloxy)phosphorylamino)methyl)phenyl)acetic acid], the IC50 is below 1000 nM.

Turning to `CCOC(=O)NCc1cc2cc(COc3ccccc3CC(=O)O)cc(-c3cccc(CN)c3)c2o1` [Compound 25h, 2-(2-((7-(3-(aminomethyl)phenyl)-2-(((ethoxycarbonyl)amino)methyl)benzofuran-5-yl)methoxy)phenyl)acetic acid], the IC50 was below 1000 nM.

For the compound `CC(C)CC(=O)NCc1ccc(CC(=O)O)c(OCc2cc(-c3cccc(CN)c3)c3occc3c2)c1` [Compound 28c, 2-(2-((7-(3-(aminomethyl)phenyl)benzofuran-5-yl)methoxy)-4-((3-methylbutanamido)methyl)phenyl)acetic acid], the concentration for half-maximal inhibition (IC50) is below 1000 nM.

Regarding `COc1ccc(CC(=O)O)c(OCc2cc(-c3cccc(CN)c3F)c3occc3c2F)c1` [Compound 42e, 2-(2-((7-(3-(aminomethyl)-2-fluorophenyl)-4-fluorobenzofuran-5-yl)methoxy)-4-methoxyphenyl)acetic acid], the concentration for half-maximal inhibition (IC50) was below 1000 nM.

For `CC(=O)NCc1ccc(CC(=O)O)c(OCc2cc(-c3cccc(CN)c3)c3occc3c2)c1` [Compound 30c, 2-(4-(acetamidomethyl)-2-((7-(3-(aminomethyl)phenyl)benzofuran-5-yl)methoxy)phenyl)acetic acid], the IC50 was below 1000 nM.

With `NCc1nccc(-c2cc(COc3cc(C(F)(F)F)ccc3CC(=O)O)cc3ccoc23)c1F` [Compound 56f, 2-(2-((7-(2-(aminomethyl)-3-fluoropyridin-4-yl)benzofuran-5-yl)methoxy)-4-(trifluoromethyl)phenyl)acetic acid], the IC50 was below 1000 nM.

As to `NCc1nccc(-c2cc(COc3ccccc3CC(=O)O)cc3c(F)coc23)c1F` [Compound 46d, 2-(2-((7-(2-(aminomethyl)-3-fluoropyridin-4-yl)-3-fluorobenzofuran-5-yl)methoxy)phenyl)acetic acid], the IC50 is below 1000 nM.

As for `NC(=O)c1cc(-c2cc(COc3ccccc3CC(=O)O)cc3ccoc23)cs1` [Compound 84c, 2-(2-((7-(5-carbamoylthiophen-3-yl)benzofuran-5-yl)methoxy)phenyl)acetic acid], the IC50 was above 10000 nM.

Turning to `NCc1ccn(-c2cc(COc3ccccc3CC(=O)O)cc3ccoc23)c1` [Compound 63f, 2-(2-((7-(3-(aminomethyl)-1H-pyrrol-1-yl)benzofuran-5-yl)methoxy)phenyl)acetic acid], the IC50 fell in the range of 1000 to 10000 nM.

With `CC(C)C(N)C(=O)OCc1cc2cc(COc3ccccc3CC(=O)O)cc(-c3cccc(CN)c3)c2o1` (centres unmarked) [Compound 24b, 2-(2-((2-(((2-amino-3-methylbutanoyl)oxy)methyl)-7-(3-(aminomethyl)phenyl)benzofuran-5-yl)methoxy)phenyl)acetic acid], the IC50 is below 1000 nM.

As to `CC(=O)c1ccc(CC(=O)O)c(OCc2cc(-c3cccc(CN)c3)c3occc3c2F)c1` [Compound 48g, 2-(4-acetyl-2-((7-(3-(aminomethyl)phenyl)-4-fluorobenzofuran-5-yl)methoxy)phenyl)acetic acid], the IC50 is below 1000 nM.

`CCCCCCC(=O)NCc1ccc(CC(=O)O)c(OCc2cc(-c3cccc(CN)c3)c3occc3c2)c1` [Compound 26f, 2-(2-((7-(3-(aminomethyl)phenyl)benzofuran-5-yl)methoxy)-4-(heptanamidomethyl)phenyl)acetic acid]: the IC50 is below 1000 nM.

Values taken from patent publication US20250275991A1, “ORAL COMPLEMENT FACTOR D INHIBITORS” (BioCryst Pharmaceuticals, Inc, priority 2019, published 2025).
